Patent US6472348B1, “Pyridone derivatives and herbicides” (Kumiai Chemical Industry Co., Ltd., priority 1996, dated 2002)

What was measured:
[1] = system: wheat (Tr); assay: Test Example 5: crop plant selectivity by upland field soil treatment (wheat), phytotoxicity; assay type: in vivo; parameters: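 grade of crop injury; 5 = at least 90%; 4 = 70 to 90%; 3 = 50 to 70%; 2 = 30 to 50%; 1 = 10 to 30%; 0 = under 10%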; conditions: dose 6.3 g ai/10a, 21st day after application
Summary of the method: (§1)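 A greenhouse pot test in which wheat and weeds share sand-filled pots; after the soil application, damage is graded against set standards three weeks later.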

[2] = system: rice flatsedge (Ci); assay: Test Example 3: herbicidal effects by upland field foliage treatment; assay type: in vivo; parameters: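 grade of growth control; 5 = at least 90%; 4 = 70 to 90%; 3 = 50 to 70%; 2 = 30 to 50%; 1 = 10 to 30%; 0 = under 10%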
Summary of the method: (§2)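 Seeds → sand pot (120 cm^2) → soil cover → greenhouse 2 wk → foliar treatment → greenhouse → herbicidal score at 14 d post-treatment against graded standards.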

[3] = system: pale smartweed (Po); assay: as above; assay type: in vivo; parameters: scale not given here
Summary of the method: as §2

[4] = system: barnyardgrass (Ec); assay: as above; assay type: in vivo; parameters: scale not given here
Summary of the method: as §2

[5] = system: Diaitaria ciliaris (Di); assay: as above; assay type: in vivo; parameters: scale not given here
Summary of the method: as §2

[6] = system: slender amaranth (Am); assay: as above; assay type: in vivo; parameters: scale not given here
Summary of the method: as §2

[7] = system: common lambsquarters (Ch); assay: as above; assay type: in vivo; parameters: scale not given here
Summary of the method: as §2

[8] = system: pale smartweed (Po); assay: Test Example 5: crop plant selectivity by upland field soil treatment (wheat), herbicidal effects; assay type: in vivo; parameters: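 grade of growth control; 5 = at least 90%; 4 = 70 to 90%; 3 = 50 to 70%; 2 = 30 to 50%; 1 = 10 to 30%; 0 = under 10%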; conditions: dose 6.3 g ai/10a, 21st day after application
Summary of the method: as §1

[9] = system: green foxtail (Se); assay: as above; assay type: in vivo; parameters: scale not given here; conditions: dose 6.3 g ai/10a, 21st day after application
Summary of the method: as §1

[10] = system: slender amaranth (Am); assay: as above; assay type: in vivo; parameters: scale not given here; conditions: dose 6.3 g ai/10a, 21st day after application
Summary of the method: as §1

[11] = system: common lambsquarters (Ch); assay: as above; assay type: in vivo; parameters: scale not given here; conditions: dose 6.3 g ai/10a, 21st day after application
Summary of the method: as §1

[12] = system: China jute (Ab); assay: as above; assay type: in vivo; parameters: scale not given here; conditions: dose 6.3 g ai/10a, 21st day after application
Summary of the method: as §1

[13] = system: rice flatsedge (Ci); assay: Test Example 2: herbicidal effects by upland field soil treatment; assay type: in vivo; conditions: 100 g of the active ingredient per 10 ares;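 also: grade of growth control; 5 = at least 90%; 4 = 70 to 90%; 3 = 50 to 70%; 2 = 30 to 50%; 1 = 10 to 30%; 0 = under 10%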
Description: (§3) (Test on Herbicidal Effects by Upland Field Soil Treatment)

[14] = system: pale smartweed (Po); assay: as above; assay type: in vivo; conditions: 100 g of the active ingredient per 10 ares
Description: as §3

[15] = system: barnyardgrass (Ec); assay: as above; assay type: in vivo; conditions: 100 g of the active ingredient per 10 ares
Description: as §3

[16] = system: slender amaranth (Am); assay: as above; assay type: in vivo; conditions: 100 g of the active ingredient per 10 ares
Description: as §3

[17] = system: common lambsquarters (Ch); assay: as above; assay type: in vivo; conditions: 100 g of the active ingredient per 10 ares
Description: as §3

[18] = system: Digitaria ciliaris (Di); assay: as above; assay type: in vivo; conditions: 100 g of the active ingredient per 10 ares;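 also: grade of growth control; 5 = at least 90%; 4 = 70 to 90%; 3 = 50 to 70%; 2 = 30 to 50%; 1 = 10 to 30%; 0 = under 10%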
Description: as §3

[19] = system: pale smartweed (Po); assay: Test Example 4: crop plant selectivity by upland field soil treatment (cotton), herbicidal effects; assay type: in vivo; parameters: scale not given here; conditions: dose 6.3 g ai/10 a, evaluated 21st day after application
Summary of the method: (§4)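 Cotton is sown alongside weeds in pots of sand, covered with soil, and the soil surface is treated. After greenhouse growth, herbicidal activity and phytotoxicity are graded on the 21st day.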

[20] = system: green foxtail (Se); assay: as above; assay type: in vivo; parameters: scale not given here; conditions: dose 6.3 g ai/10 a, evaluated 21st day after application
Summary of the method: as §4

[21] = system: slender amaranth (Am); assay: as above; assay type: in vivo; parameters: scale not given here; conditions: dose 6.3 g ai/10 a, evaluated 21st day after application
Summary of the method: as §4

[22] = system: common lambsquarters (Ch); assay: as above; assay type: in vivo; parameters: scale not given here; conditions: dose 6.3 g ai/10 a, evaluated 21st day after application
Summary of the method: as §4

[23] = system: China jute (Ab); assay: as above; assay type: in vivo; parameters: scale not given here; conditions: dose 6.3 g ai/10 a, evaluated 21st day after application
Summary of the method: as §4

[24] = system: cotton (Go); assay: Test Example 4: crop plant selectivity by upland field soil treatment (cotton), phytotoxicity; assay type: in vivo; parameters: scale not given here; conditions: dose 6.3 g ai/10 a, evaluated 21st day after application
Summary of the method: as §4

[25] = system: barnyardgrass (Ec); assay: Test Example 1: herbicidal effects by paddy field soil treatment; assay type: in vivo; conditions: 100 g of the active ingredient per 10 ares, 21st day after the application, index 0-5 of Table 47;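 also: grade of growth control; 5 = at least 90%; 4 = 70 to 90%; 3 = 50 to 70%; 2 = 30 to 50%; 1 = 10 to 30%; 0 = under 10%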
Summary of the method: (§5)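 Greenhouse pot test in flooded paddy soil, dosed at 100 g a.i. per 10 ares; effect scored on day 21.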

[26] = system: bulrush (Sc); assay: as above; assay type: in vivo; conditions: 100 g of the active ingredient per 10 ares, 21st day after the application, index 0-5 of Table 47;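 also: grade of growth control; 5 = at least 90%; 4 = 70 to 90%; 3 = 50 to 70%; 2 = 30 to 50%; 1 = 10 to 30%; 0 = under 10%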
Summary of the method: as §5

[27] = system: monochoria (Mo); assay: as above; assay type: in vivo; conditions: 100 g of the active ingredient per 10 ares, 21st day after the application, index 0-5 of Table 47
Summary of the method: as §5

[28] = system: corn (Ze); assay: Test Example 7: crop plant selectivity by upland field soil treatment (corn), phytotoxicity; assay type: in vivo; parameters: scale not given here; conditions: dose 6.3 g ai/10a, 21st day after application
Summary of the method: (§6)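 Scoring of weed kill and corn injury was done on day 21 after the application, using defined standards. Before that, sown seeds in sand-filled pots were covered with soil, treated, and grown in a greenhouse.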

[29] = system: pale smartweed (Po); assay: Test Example 7: crop plant selectivity by upland field soil treatment (corn), herbicidal effects; assay type: in vivo; parameters: scale not given here; conditions: dose 6.3 g ai/10a, 21st day after application
Summary of the method: as §6

[30] = system: green foxtail (Se); assay: as above; assay type: in vivo; parameters: scale not given here; conditions: dose 6.3 g ai/10a, 21st day after application
Summary of the method: as §6

[31] = system: slender amaranth (Am); assay: as above; assay type: in vivo; parameters: scale not given here; conditions: dose 6.3 g ai/10a, 21st day after application
Summary of the method: as §6

[32] = system: common lambsquarters (Ch); assay: as above; assay type: in vivo; parameters: scale not given here; conditions: dose 6.3 g ai/10a, 21st day after application
Summary of the method: as §6

[33] = system: China jute (Ab); assay: as above; assay type: in vivo; parameters: scale not given here; conditions: dose 6.3 g ai/10a, 21st day after application
Summary of the method: as §6

[34] = system: pale smartweed (Po); assay: Test Example 6: crop plant selectivity by upland field soil treatment (soybean), herbicidal effects; assay type: in vivo; parameters: scale not given here; conditions: dose 6.3 g ai/10a, 21st day after application
Summary of the method: (§7)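 Greenhouse pot test with soil-applied compound after sowing soybean and weeds in sand; effects graded on day 21 after application.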

[35] = system: green foxtail (Se); assay: as above; assay type: in vivo; parameters: scale not given here; conditions: dose 6.3 g ai/10a, 21st day after application
Summary of the method: as §7

[36] = system: slender amaranth (Am); assay: as above; assay type: in vivo; parameters: scale not given here; conditions: dose 6.3 g ai/10a, 21st day after application
Summary of the method: as §7

[37] = system: common lambsquarters (Ch); assay: as above; assay type: in vivo; parameters: scale not given here; conditions: dose 6.3 g ai/10a, 21st day after application
Summary of the method: as §7

[38] = system: China jute (Ab); assay: as above; assay type: in vivo; parameters: scale not given here; conditions: dose 6.3 g ai/10a, 21st day after application
Summary of the method: as §7

[39] = system: soybean (Gl); assay: Test Example 6: crop plant selectivity by upland field soil treatment (soybean), phytotoxicity; assay type: in vivo; parameters: scale not given here; conditions: dose 6.3 g ai/10a, 21st day after application
Summary of the method: as §7

[40] = system: pale smartweed (Po); assay: Test Example 11: crop plant selectivity by upland field foliage treatment (corn), herbicidal effects; assay type: in vivo; parameters: scale not given here; conditions: upland field foliage treatment (corn test), dose 1.6 g ai/10a, 14th day after treatment
Summary of the method: (§8)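 Corn and the weed species were sown together in sand-filled pots and grown in a greenhouse for 2 weeks before foliar treatment. Herbicidal effect was scored on day 14 after treatment against a graded standard scale, with corn phytotoxicity scored alongside.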

[41] = system: slender amaranth (Am); assay: as above; assay type: in vivo; parameters: scale not given here; conditions: upland field foliage treatment (corn test), dose 1.6 g ai/10a, 14th day after treatment
Summary of the method: as §8

[42] = system: common lambsquarters (Ch); assay: as above; assay type: in vivo; parameters: scale not given here; conditions: upland field foliage treatment (corn test), dose 1.6 g ai/10a, 14th day after treatment
Summary of the method: as §8

[43] = system: China jute (Ab); assay: as above; assay type: in vivo; parameters: scale not given here; conditions: upland field foliage treatment (corn test), dose 1.6 g ai/10a, 14th day after treatment
Summary of the method: as §8

[44] = system: corn (Ze); assay: Test Example 11: crop plant selectivity by upland field foliage treatment (corn), phytotoxicity; conditions: upland field foliage treatment, dose 1.6 g ai/10a, 14th day after treatment
Summary of the method: as §8

[45] = 100 g of the active ingredient per 10 ares, evaluated on the 14th day after treatment
[46] = 21st day after the application, index 0-5 of Table 47
[47] = 100 g active ingredient per 10 ares, evaluated 14th day after treatment
[48] = evaluated on the 21st day after application

Structure (SMILES)	Phytotoxicity Tr [1]	melting point	Herbicidal effects Po [8]	Herbicidal effects Se [9]	Herbicidal effects Am [10]	Herbicidal effects Ec [25]	Herbicidal effects Sc [26]	Herbicidal effects Mo [27]	Herbicidal effects Ci [2, 47]	Herbicidal effects Po [3, 47]	Herbicidal effects Ec [4, 47]	Herbicidal effects Di [5, 47]	Herbicidal effects Am [6, 47]	Herbicidal effects Ch [7, 47]	Herbicidal effects Ci [13, 48]	Herbicidal effects Po [14, 48]	Herbicidal effects Ec [15, 48]	Herbicidal effects Am [16, 48]	Herbicidal effects Ch [17, 48]	Herbicidal effects Di [18, 48]	other results
CNS(=O)(=O)c1cc(-c2ccc(C(F)(F)F)n(C)c2=O)c(F)cc1Cl [Compound No. 1-71, 3-(4-chloro-2-fluoro-5-methylsulfamoylphenyl)-1-methyl-6-trifluoromethyl-2(1H)-pyridone]	2	150 to 151 °C	5	5	5	5	5	5	–	–	–	–	–	–	–	–	–	–	–	–	Herbicidal effects Ci [2, 45]: 5; Herbicidal effects Po [3, 45]: 5; Herbicidal effects Ec [4, 45]: 5; Herbicidal effects Di [5, 45]: 5; Herbicidal effects Am [6, 45]: 5; Herbicidal effects Ch [7, 45]: 5; Herbicidal effects Ch [11]: 5; Herbicidal effects Ab [12]: 5; Herbicidal effects Ci [13, 46]: 5; Herbicidal effects Po [14, 46]: 5; Herbicidal effects Ec [15, 46]: 5; Herbicidal effects Am [16, 46]: 5; Herbicidal effects Ch [17, 46]: 5; Herbicidal effects Di [18, 46]: 5; Herbicidal effects Po [19]: 5; Herbicidal effects Se [20]: 5; Herbicidal effects Am [21]: 5; Herbicidal effects Ch [22]: 5; Herbicidal effects Ab [23]: 5; Phytotoxicity Go [24]: 1
Cn1c(C(F)(F)F)ccc(-c2c(F)cc(Cl)c3oc(CBr)cc23)c1=O [Compound No. 4-7, 3-(2-bromomethyl-7-chloro-5-fluorobenzofuran-4-yl)-1-methyl-6-trifluoromethyl-2-(1H)-pyridone]	1	142 to 144 °C	5	5	5	5	5	5	5	5	5	5	5	5	5	5	5	5	5	5	Phytotoxicity Ze [28]: 2; Herbicidal effects Po [29]: 5; Herbicidal effects Se [30]: 5; Herbicidal effects Am [31]: 5; Herbicidal effects Ch [32]: 5; Herbicidal effects Ab [33]: 5; Herbicidal effects Po [34]: 5; Herbicidal effects Se [35]: 5; Herbicidal effects Am [36]: 5; Herbicidal effects Ch [37]: 5; Herbicidal effects Ab [38]: 5; Herbicidal effects Ch [11]: 5; Herbicidal effects Ab [12]: 5; Herbicidal effects Po [19]: 5; Herbicidal effects Se [20]: 5; Herbicidal effects Am [21]: 5; Herbicidal effects Ch [22]: 5; Herbicidal effects Ab [23]: 5; Phytotoxicity Gl [39]: 1; Phytotoxicity Go [24]: 1
Cn1c(C(F)(F)F)ccc(-c2c(F)cc(Cl)c3oc(C(=O)O)cc23)c1=O [Compound No. 4-26, 3-(2-carboxy-7-chloro-5-fluorobenzofuran-4-yl)-1-methyl-6-trifluoromethyl-2-(1H)-pyridone]	–	233 to 235 °C	–	–	–	5	5	5	–	–	–	–	–	–	5	5	5	5	5	5	Herbicidal effects Po [40]: 5; Herbicidal effects Am [41]: 5; Herbicidal effects Ch [42]: 5; Herbicidal effects Ab [43]: 5; Phytotoxicity Ze [44]: 1
Cc1cc2c(Cl)cc(F)c(-c3ccc(C(F)(F)F)n(C)c3=O)c2o1 [Compound No. 5-1, 3-(4-chloro-6-fluoro-2-methylbenzofuran-7-yl)-1-methyl-6-trifluoromethyl-2 (1H)-pyridone]	–	138 to 140 °C	–	–	–	5	5	5	5	5	5	5	5	5	5	5	5	5	5	5	–
CC(C)Oc1cc(-c2cn(C)c(C(F)(F)F)cc2=O)c(F)cc1Cl [Compound No. 6-7, 5-(4-chloro-2-fluoro-5-isopropoxyphenyl)-1-methyl-2-trifluoromethyl-4(1H)-pyridone]	–	150 to 151 °C	–	–	–	5	5	5	5	5	5	5	5	5	5	5	5	5	5	5	–
Cn1cc(-c2cc(OC3CCCC3)c(Cl)cc2F)c(=O)cc1C(F)(F)F [Compound No. 6-14, 5-(4-chloro-2-fluoro-5-cyclopentyloxyphenyl)-1-methyl-2-trifluoromethyl-4(1H)-pyridone]	–	152 to 154 °C	–	–	–	5	5	5	5	5	5	5	5	5	5	5	5	5	5	5	–
